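Method: 48-hour compound exposure of cells in 96-well plates, five concentrations, linear interpolation of endpoints. GI50: concentration for 50% inhibition of growth.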 The source made the active and inactive calls. Rule as the data show it: active = GI50 up to about 1.1 µM and inactive = higher.
How the values were obtained:
Experiment in all cases: NCI tumour cell line growth inhibition, 48 h
SNB-75 = system: SNB-75
SK-MEL-5 = system: SK-MEL-5
CAKI-1 = system: CAKI-1
DMS-273 = system: DMS-273
NCI-H226 = system: NCI-H226
A549 = system: A549
RPMI-8226 = system: RPMI-8226
KM12 = system: KM12
OVCAR-3 = system: OVCAR-3
SF-539 = system: SF-539
COLO 205 = system: COLO 205
SN12C = system: SN12C
SNB-78 = system: SNB-78
NCI-H23 = system: NCI-H23
IGROV-1 = system: IGROV-1
786-0 = system: 786-0
SF-295 = system: SF-295
EKVX = system: EKVX
SF-268 = system: SF-268
MOLT-4 = system: MOLT-4
SK-MEL-28 = system: SK-MEL-28
HL-60 = system: HL-60
DMS-114 = system: DMS-114
NCI-H522 = system: NCI-H522
KM-20L2 = system: KM-20L2
SNB-19 = system: SNB-19
SK-MEL-2 = system: SK-MEL-2
U-251 = system: U-251
SW-620 = system: SW-620
TK-10 = system: TK-10
XF498 = system: XF498
CCRF-CEM = system: CCRF-CEM
HT-29 = system: HT-29
M14 = system: M14
LOX IMVI = system: LOX IMVI
Malme-3M = system: Malme-3M
UACC-62 = system: UACC-62
HCT-15 = system: HCT-15
UACC-257 = system: UACC-257
OVCAR-8 = system: OVCAR-8
A498 = system: A498
K562 = system: K562
LXFL 529 = system: LXFL 529
M19-MEL = system: M19-MEL
DLD-1 = system: DLD-1
HCC 2998 = system: HCC 2998
HOP-62 = system: HOP-62
SK-OV-3 = system: SK-OV-3
UO-31 = system: UO-31
RXF 393 = system: RXF 393
OVCAR-5 = system: OVCAR-5
HCT-116 = system: HCT-116
OVCAR-4 = system: OVCAR-4
HOP-92 = system: HOP-92
NCI-H460 = system: NCI-H460
ACHN = system: ACHN
SR = system: SR

CN1CC2(CCCCC2)C(O)C12C=CCCC2 (stereo unspecified)
GI50 (SNB-75): 69.5 µM (inactive)
GI50 (SK-MEL-5): > 100 µM (inactive)
GI50 (CAKI-1): > 100 µM (inactive)
GI50 (DMS-273): > 100 µM (inactive)
GI50 (NCI-H226): > 100 µM (inactive)
GI50 (A549): > 100 µM (inactive)
GI50 (RPMI-8226): > 100 µM (inactive)
GI50 (KM12): > 100 µM (inactive)
GI50 (OVCAR-3): > 100 µM (inactive)
GI50 (SF-539): > 100 µM (inactive)
GI50 (COLO 205): > 100 µM (inactive)
GI50 (SN12C): > 100 µM (inactive)
GI50 (SNB-78): > 100 µM (inactive)
GI50 (NCI-H23): > 100 µM (inactive)
GI50 (IGROV-1): > 100 µM (inactive)
GI50 (786-0): > 100 µM (inactive)
GI50 (SF-295): > 100 µM (inactive)
GI50 (EKVX): > 100 µM (inactive)
GI50 (SF-268): > 100 µM (inactive)
GI50 (MOLT-4): > 100 µM (inactive)
GI50 (SK-MEL-28): > 100 µM (inactive)
GI50 (HL-60): > 100 µM (inactive)
GI50 (DMS-114): > 100 µM (inactive)
GI50 (NCI-H522): > 100 µM (inactive)
GI50 (KM-20L2): > 100 µM (inactive)
GI50 (SNB-19): > 100 µM (inactive)
GI50 (SK-MEL-2): > 100 µM (inactive)
GI50 (U-251): > 100 µM (inactive)
GI50 (SW-620): > 100 µM (inactive)
GI50 (TK-10): > 100 µM (inactive)
GI50 (XF498): > 100 µM (inactive)
GI50 (CCRF-CEM): > 100 µM (inactive)
GI50 (HT-29): > 100 µM (inactive)
GI50 (M14): > 100 µM (inactive)
GI50 (LOX IMVI): > 100 µM (inactive)
GI50 (Malme-3M): > 100 µM (inactive)
GI50 (UACC-62): > 100 µM (inactive)
GI50 (HCT-15): > 100 µM
GI50 (UACC-257): > 100 µM (inactive)
GI50 (OVCAR-8): > 100 µM (inactive)
GI50 (A498): > 100 µM (inactive)
GI50 (K562): > 100 µM (inactive)
GI50 (LXFL 529): > 100 µM (inactive)
GI50 (M19-MEL): > 100 µM (inactive)
GI50 (DLD-1): > 100 µM (inactive)
GI50 (HCC 2998): > 100 µM (inactive)
GI50 (HOP-62): > 100 µM (inactive)
GI50 (SK-OV-3): > 100 µM (inactive)
GI50 (UO-31): > 100 µM (inactive)
GI50 (RXF 393): > 100 µM (inactive)

C=C1C(=O)OC2C[C@H](C)C3CC(=O)C(C)=C3CC12 (stereo partly specified)
GI50 (SNB-75): 14.6 µM (inactive)
GI50 (SK-MEL-5): 15.5 µM (inactive)
GI50 (CAKI-1): 5.09 µM (inactive)
GI50 (DMS-273): 17.1 µM (inactive)
GI50 (NCI-H226): 2.94 µM (inactive)
GI50 (A549): 24.5 µM (inactive)
GI50 (RPMI-8226): 4.45 µM (inactive)
GI50 (KM12): 16 µM (inactive)
GI50 (OVCAR-3): 12.1 µM (inactive)
GI50 (SF-539): 17.2 µM (inactive)
GI50 (COLO 205): 10.4 µM (inactive)
GI50 (SN12C): 12.1 µM (inactive)
GI50 (OVCAR-5): 15.1 µM (inactive)
GI50 (SNB-78): 16 µM (inactive)
GI50 (NCI-H23): 13.6 µM (inactive)
GI50 (IGROV-1): 15.4 µM (inactive)
GI50 (786-0): 13 µM (inactive)
GI50 (SF-295): 25.2 µM (inactive)
GI50 (HCT-116): 6.38 µM (inactive)
GI50 (EKVX): 16.3 µM (inactive)
GI50 (SF-268): 18.2 µM (inactive)
GI50 (OVCAR-4): 14.2 µM (inactive)
GI50 (MOLT-4): 6.92 µM (inactive)
GI50 (SK-MEL-28): 5.28 µM (inactive)
GI50 (HL-60): 2.33 µM (inactive)
GI50 (DMS-114): 15 µM (inactive)
GI50 (NCI-H522): 1.75 µM (inactive)
GI50 (KM-20L2): 14.8 µM (inactive)
GI50 (SNB-19): 32.9 µM (inactive)
GI50 (SK-MEL-2): 14.2 µM (inactive)
GI50 (U-251): 12.4 µM (inactive)
GI50 (SW-620): 4.81 µM (inactive)
GI50 (HOP-92): 10.5 µM (inactive)
GI50 (TK-10): 15.8 µM (inactive)
GI50 (NCI-H460): 21.9 µM (inactive)
GI50 (XF498): 16.5 µM (inactive)
GI50 (CCRF-CEM): 3.44 µM (inactive)
GI50 (HT-29): 12.5 µM (inactive)
GI50 (M14): 12.4 µM (inactive)
GI50 (LOX IMVI): 15 µM (inactive)
GI50 (Malme-3M): 11.8 µM (inactive)
GI50 (UACC-62): 11.8 µM (inactive)
GI50 (HCT-15): 11.2 µM
GI50 (UACC-257): 13.1 µM (inactive)
GI50 (OVCAR-8): 16.8 µM (inactive)
GI50 (A498): 19.5 µM (inactive)
GI50 (K562): 4.47 µM (inactive)
GI50 (LXFL 529): 10.6 µM (inactive)
GI50 (M19-MEL): 13.2 µM (inactive)
GI50 (DLD-1): 7.38 µM (inactive)
GI50 (ACHN): 12.1 µM (inactive)
GI50 (HCC 2998): 15.5 µM (inactive)
GI50 (HOP-62): 23.4 µM (inactive)
GI50 (SK-OV-3): > 57 µM (inactive)
GI50 (UO-31): 11.8 µM (inactive)
GI50 (SR): 5.56 µM (inactive)
GI50 (RXF 393): 13.2 µM (inactive)

COC(=O)c1c(C(=O)OC)c(-c2ccccc2)n(-c2ccccc2)c(=O)c1-c1ccccc1
GI50 (SNB-75): 27.2 µM (inactive)
GI50 (SK-MEL-5): > 100 µM (inactive)
GI50 (CAKI-1): 51.2 µM (inactive)
GI50 (DMS-273): 87.7 µM (inactive)
GI50 (NCI-H226): > 100 µM (inactive)
GI50 (A549): 80.4 µM (inactive)
GI50 (RPMI-8226): > 100 µM (inactive)
GI50 (KM12): > 100 µM (inactive)
GI50 (OVCAR-3): 51.8 µM (inactive)
GI50 (SF-539): 17.7 µM (inactive)
GI50 (COLO 205): > 100 µM (inactive)
GI50 (SN12C): > 100 µM (inactive)
GI50 (OVCAR-5): > 100 µM (inactive)
GI50 (SNB-78): 54.7 µM (inactive)
GI50 (NCI-H23): 72.8 µM (inactive)
GI50 (IGROV-1): > 100 µM (inactive)
GI50 (786-0): 32.4 µM (inactive)
GI50 (SF-295): 36.9 µM (inactive)
GI50 (HCT-116): 58.7 µM (inactive)
GI50 (EKVX): > 100 µM (inactive)
GI50 (SF-268): 55.7 µM (inactive)
GI50 (OVCAR-4): 25.2 µM (inactive)
GI50 (MOLT-4): > 100 µM (inactive)
GI50 (HL-60): > 100 µM (inactive)
GI50 (DMS-114): 74.1 µM (inactive)
GI50 (NCI-H522): 94.8 µM (inactive)
GI50 (KM-20L2): > 100 µM (inactive)
GI50 (SNB-19): 67.9 µM (inactive)
GI50 (U-251): 42.9 µM (inactive)
GI50 (SW-620): > 100 µM (inactive)
GI50 (HOP-92): 24.3 µM (inactive)
GI50 (TK-10): > 100 µM (inactive)
GI50 (NCI-H460): 98.6 µM (inactive)
GI50 (XF498): 23.1 µM (inactive)
GI50 (CCRF-CEM): > 100 µM (inactive)
GI50 (HT-29): > 100 µM (inactive)
GI50 (M14): > 100 µM (inactive)
GI50 (LOX IMVI): 84.5 µM (inactive)
GI50 (Malme-3M): 61.2 µM (inactive)
GI50 (UACC-62): 61 µM (inactive)
GI50 (HCT-15): > 100 µM
GI50 (UACC-257): 71.8 µM (inactive)
GI50 (OVCAR-8): 51.4 µM (inactive)
GI50 (A498): > 100 µM (inactive)
GI50 (K562): > 100 µM (inactive)
GI50 (LXFL 529): > 100 µM (inactive)
GI50 (M19-MEL): 92.3 µM (inactive)
GI50 (DLD-1): 66.5 µM (inactive)
GI50 (HCC 2998): > 100 µM (inactive)
GI50 (HOP-62): 27.6 µM (inactive)
GI50 (SK-OV-3): 53.5 µM (inactive)
GI50 (UO-31): 59.7 µM (inactive)
GI50 (SR): > 100 µM (inactive)
GI50 (RXF 393): 20.9 µM (inactive)

Source: ChEMBL document CHEMBL1201862, “PubChem BioAssay data set” (2004)
